Data as given in patent publication US5939419A, “2-benzyl-polycyclic guanine derivatives and process for preparing them” (Schering-Plough Corporation, priority 1995, dated 1999).

target: T1, calcium-calmodulin dependent phosphodiesterase (CaM-PDE) (Bos taurus, UniProt P14100); assay: Phosphodiesterase inhibition in vitro, calcium-calmodulin dependent phosphodiesterase (CaM-PDE), 3H-cGMP substrate; assay type: biochemical; settings: CaM-PDE from bovine aorta; 1 μM 3H-cGMP; pH 7.5; 25 minutes at room temperature
T1 construct: from tissue; host or cells: bovine aorta

SMILES | IC50 [nM]
CN1C(=O)c2[nH]c(Cc3ccc4ccccc4c3)nc2N2C1=N[C@@H]1CCC[C@@H]12 [Example 6] | 480
COc1ccc(Cc2nc3c([nH]2)C(=O)N(C)C2=N[C@@H]4CCC[C@@H]4N23)cc1OC [Example 2B] | 400
CN1C(=O)c2[nH]c(Cc3ccc4c(c3)OCO4)nc2N2C1=NC13CCCC1CCC23 (centres unmarked) [Example 11] | 200
CN1C(=O)c2[nH]c(Cc3ccc(Cl)cc3)nc2N2C1=N[C@@H]1CCC[C@@H]12 [Example 7] | 650
CN1C(=O)c2[nH]c(Cc3ccccc3)nc2N2CC(C)(C)N=C12 [Example 9] | 300
COc1ccc(Cc2nc3c([nH]2)C(=O)N(C)C2=N[C@@H]4CCC[C@@H]4N23)cc1 [Example 1B] | 200
CN1C(=O)c2[nH]c(Cc3ccc4c(c3)OCO4)nc2N2C1=N[C@@H]1CCC[C@@H]12 [Example 3G] | 300
CN1C(=O)c2[nH]cnc2N2C1=N[C@@H]1CCC[C@@H]12 (relative stereo) [Compound B, cis-5,6a,7,8,9,9a-hexahydro-5-methylcyclopenta-[4,5]imidazo[2,1-b]-purin-4(3H)-one, reference compound] | 33000
COc1cc(Cc2nc3c([nH]2)C(=O)N(C)C2=N[C@@H]4CCC[C@@H]4N23)cc(OC)c1OC [Example 2A] | 700
CN1C(=O)c2[nH]c(Cc3ccc(C(F)(F)F)cc3)nc2N2C1=N[C@@H]1CCC[C@@H]12 [Example 1C] | 600
COc1cccc(Cc2nc3c([nH]2)C(=O)N(C)C2=N[C@@H]4CCC[C@@H]4N23)c1 [Example 3E] | 900
CN1C(=O)c2[nH]c(Cc3ccccc3)nc2N2C1=N[C@@H]1CCC[C@@H]12 (relative stereo) [Compound A, reference compound] | 200
CN1C(=O)c2[nH]c(Cc3ccc(N4CCOCC4)cc3)nc2N2C1=N[C@@H]1CCC[C@@H]12 [Example 3C] | 200
CN1C(=O)c2[nH]c(Cc3ccc(OC(F)(F)F)cc3)nc2N2C1=N[C@@H]1CCC[C@@H]12 [Example 3B] | 600
CN1C(=O)c2[nH]c(Cc3cccc(C(F)(F)F)c3)nc2N2C1=N[C@@H]1CCC[C@@H]12 [Example 3F] | 800
CN1C(=O)c2[nH]c(Cc3ccc(C(F)(F)F)cc3)nc2N2C1=N[C@@H]1COC[C@@H]12 [Example 12] | 3000

Now those with a lower IC50, led by results:

IC50 [nM] | SMILES
< 100 | CN1C(=O)c2[nH]c(Cc3ccc(O)cc3)nc2N2C1=N[C@@H]1CCC[C@@H]12 [Example 3]
< 100 | CN1C(=O)c2[nH]c(Cc3ccc(F)cc3)nc2N2C1=N[C@@H]1CCC[C@@H]12 [Example 1A]
100 | CC(C)[C@@H]1CN2C(=N1)N(C)C(=O)c1[nH]c(Cc3ccccc3)nc12 [Example 10]
100 | CN1C(=O)c2[nH]c(Cc3ccccc3)nc2N2C1=N[C@@H]1CCC[C@@H]12 [Example 1]
< 100 | CN1C(=O)c2[nH]c(Cc3ccc(-c4ccccc4)cc3)nc2N2C1=N[C@@H]1CCC[C@@H]12 [Example 3H]
< 100 | CN1C(=O)c2[nH]c(Cc3ccc(N(C)C)cc3)nc2N2C1=N[C@@H]1CCC[C@@H]12 [Example 2]
100 | Cc1ccc(Cc2nc3c([nH]2)C(=O)N(C)C2=N[C@@H]4CCC[C@@H]4N23)cc1 [Example 3A]
100 | CN1C(=O)c2[nH]c(Cc3ccccc3)nc2N2CC3(CCCC3)N=C12 [Example 8]

test system: spontaneously hypertensive rats (SHR); assay: Antihypertensive activity in conscious spontaneously hypertensive rats (SHR), oral; assay type: in vivo, rat; settings: not given
Source text: The present compounds are useful in inhibiting the phosphodiesterase enzymes. These phosphodiesterase enzymes are known to hydrolyze cGMP in smooth muscle. High levels of cGMP are associated with the relaxation of vascular smooth muscle, with a consequent subsequent reduction in blood pressure. Thus, it is believed that by inhibiting these phosphodiesterase enzymes, cGMP levels in muscle will be either maintained or increased, with a subsequent reduction in blood pressure. In vivo antihypertensive activity is determined orally in spontaneously hypertensive rats (SHR).
Antihypertensive activity in rats
The ability of the compounds of the present invention to lower blood pressure can be assessed in vivo in conscious spontaneously hypertensive rats (SHR). SHR males are purchased from Taconic Farms, Germantown, N.Y. and are approximately 16-18 weeks old when anesthetized with ether. The caudal (ventral tail) artery is cannulated with polyethylene tubing (PE50) and blood pressure and heart rate are recorded as described by Baum, T. et. al, J. Cardiovasc. Pharmacol. Vol 5, pp. 655-667, (1983). Rats are placed into plastic cylindrical cages where they rapidly recover consciousness. Blood pressure and heart rate are allowed to stabilize for approximately 90 minutes prior to compound administration. […] Activity is expressed as the fall in mean blood pressure (MBP) in millimeters of mercury (mm Hg). […]

SMILES | SHR: fall in MBP at 25 mpk [mmHg]
CN1C(=O)c2[nH]cnc2N2C1=N[C@@H]1CCC[C@@H]12 (relative stereo) [Compound B, cis-5,6a,7,8,9,9a-hexahydro-5-methylcyclopenta-[4,5]imidazo[2,1-b]-purin-4(3H)-one, reference compound] | 32
CN1C(=O)c2[nH]c(Cc3ccccc3)nc2N2C1=N[C@@H]1CCC[C@@H]12 (relative stereo) [Compound A, reference compound] | 6
